# According to patent US20180098969A1, “HODGKIN LYMPHOMA THERAPY” (Purdue Pharmaceutical Products L.P., priority 2016, published 2018):
# Key:
# L540 cell line = assay: Mitotic index and chromosomal aberrations; format: cell-based, human
# Procedure: (§1) The mitotic index and chromosomal aberrations for each of the cell lines were evaluated after treatment with either 20 μmol or 10 μmol EDO-S101 in DMSO. Each cell line was cultured at 37° C. in the presence of RPMI 1640 supplemented with 10% FCS and antibiotics. Colcemid (0.1 ug/ml) was added 2 h before harvesting and slides with chromosomes in metaphase were prepared following the standard methanol/acetic acid (3/1, v/v) procedure. The slides were stored at −20° C. until use.
# (§2) FISH was performed using a combination of standard procedures from the recommended protocols for chromosome analysis, following telomere and centromere staining, using PNA probes. In all, 100 metaphases were scored per in vitro dose exposure.
# (§3) The mitotic index was determined by measurement of the sum of all cells in prophase, metaphase, anaphase and telophase divided by the total number of cells.
# [1] = system: Hodgkin lymphoma cell lines; assay: Mitotic index and chromosomal aberrations; format: cell-based, human
# Procedure: as §1, §2, §3
# L428 cells = assay: Xenograft in NSG mice, CD30 immunofluorescence of cytospin slides; format: in vivo; set-up: key to Spleen, red pulp activation, diffuse / Liver, Tumour cell infiltration: “0”=without any staining; “1”=minimal, <1% staining; “2”=mild, 1% staining; “3”=moderate, <10% staining; “4”=marked, 10-40% staining; “5”=severe, >40% of cells staining; details: for Bone Marrow: Tumour infiltration: Marked / Bone Marrow: Tumour infiltration: Mild / Bone Marrow: Tumour infiltration: Minimal / Bone Marrow: Tumour infiltration: Moderate / Bone Marrow: Tumour infiltration: No / Bone Marrow: Tumour infiltration: Overall / Bone Marrow: Tumour infiltration: Severe / Injection site: Tumour infiltration: Marked / Injection site: Tumour infiltration: Mild / Injection site: Tumour infiltration: Minimal / Injection site: Tumour infiltration: Moderate / Injection site: Tumour infiltration: No / Injection site: Tumour infiltration: Overall / Injection site: Tumour infiltration: Severe / Liver: Tumour infiltration: Marked / Liver: Tumour infiltration: Mild / Liver: Tumour infiltration: Minimal / Liver: Tumour infiltration: Moderate / Liver: Tumour infiltration: No / Liver: Tumour infiltration: Overall / Liver: Tumour infiltration: Severe / Spleen: Tumour infiltration: Marked / Spleen: Tumour infiltration: Mild / Spleen: Tumour infiltration: Minimal / Spleen: Tumour infiltration: Moderate / Spleen: Tumour infiltration: No / Spleen: Tumour infiltration: Overall / Spleen: Tumour infiltration: Severe / Tumour presence: Overall: % of mice
# Description: Immunodeficient NOD-SCID-gammac−/− (NSG) mice aged 5 to 6 weeks were purchased from Charles River (NOD.Cg-Prkdcscid Il2rgtm1Wjl/SzJ). The mice arrived two weeks before the beginning of the experiments and were housed in micro-isolator cages during the entire course of the study. Immediately prior to the injection of Hodgkin lymphoma cells, mice were exposed to 3 Gy gamma irradiation using an IBL637 ^137Cs irradiator at a dose rate of 0.61 Gy/min. From 10^3 to 10^6 cells, either from the original cell lines or following amplification, were injected intravenously via the retro-orbital sinus. The mice were sacrificed by cervical dislocation and different organs were analysed and tumoural infiltration examined using multiple techniques.
# Two independent experiments were performed to investigate the dose-effect of EDO-S101 in NSG mice eight weeks after xenografting with L428 cells as in Example 8. The aim of the protocol shown in FIG. […]
# The mice were sacrificed by cervical dislocation. The sampled organs consisted of the eyes (site of injection), liver, spleen and bone marrow. Following dissection of different organs, including tumours, the first portion was used for flow cytometry (FACS) and cytogenetic analyses while the second was fixed in 4% paraformaldehyde (PFA) for immunohistochemistry (IHC). To obtain a single cell suspension, the tissues were first cut into pieces. Thereafter, the cells were physically disaggregated using an 80 μm nylon cell strainer and filtered a second time through a 70 μm nylon cell strainer (BD Biosciences, Erembodegem, Belgium).
# Cells were cytospun onto poly-L-lysine-coated glass slides at 700 rpm for 4 min, fixed with 10% formalin for 10 min, and treated with 0.25% Triton X-100 solution for 10 min. After blocking with 5% bovine serum albumin (Sigma), the cells were incubated with an anti-CD30 antibody (DAKO A/S, Glostrup, Denmark). Then, cells were treated with Cyanine 3 anti-mouse IgG (Invitrogen, Carlsbad, Calif.). As a negative control, staining was carried out in the absence of primary antibody. The L428-s cell line served as positive control.
# Individual microscopic findings following immunofluorescence CD30 staining of cytopsin slides: “0”=without any staining; “1”=minimal, <1% staining; “2”=mild, 1% staining; “3”=moderate, <10% staining; “4”=marked, 10-40% staining; “5”=severe, >40% of cells staining.
compound,measurement,setting,value
Cn1c(CCCCCCC(=O)NO)nc2cc(N(CCCl)CCCl)ccc21 [EDO-S101],mitotic index,L540 cell line,very low mitotic index
same,metaphases observed,[1]; 10 μmol,only a few metaphases of poor quality
same,metaphases observed,"[1]; 20 μmol, any cell line",No metaphases were observed
same,sensitivity in mitotic index assay,"[1]; all cell lines, 24 h of treatment",remarkably high sensitivity
same,Bone Marrow: Tumour infiltration: Marked,L428 cells; 80 mg/kg,0.0%
same,Bone Marrow: Tumour infiltration: Mild,L428 cells; 80 mg/kg,0.0%
same,Bone Marrow: Tumour infiltration: Minimal,L428 cells; 80 mg/kg,33.3%
same,Bone Marrow: Tumour infiltration: Moderate,L428 cells; 80 mg/kg,0.0%
same,Bone Marrow: Tumour infiltration: No,L428 cells; 80 mg/kg,33.3%
same,Bone Marrow: Tumour infiltration: Overall,L428 cells; 80 mg/kg,33.3%
same,Bone Marrow: Tumour infiltration: Severe,L428 cells; 80 mg/kg,0.0%
same,Injection site: Tumour infiltration: Marked,L428 cells; 80 mg/kg,0.0%
same,Injection site: Tumour infiltration: Mild,L428 cells; 80 mg/kg,33.3%
same,Injection site: Tumour infiltration: Minimal,L428 cells; 80 mg/kg,0.0%
same,Injection site: Tumour infiltration: Moderate,L428 cells; 80 mg/kg,0.0%
same,Injection site: Tumour infiltration: No,L428 cells; 80 mg/kg,0.0%
same,Injection site: Tumour infiltration: Overall,L428 cells; 80 mg/kg,33.3%
same,Injection site: Tumour infiltration: Severe,L428 cells; 80 mg/kg,0.0%
same,Liver: Tumour infiltration: Marked,L428 cells; 80 mg/kg,0.0%
same,Liver: Tumour infiltration: Mild,L428 cells; 80 mg/kg,0.0%
same,Liver: Tumour infiltration: Minimal,L428 cells; 80 mg/kg,0.0%
same,Liver: Tumour infiltration: Moderate,L428 cells; 80 mg/kg,0.0%
same,Liver: Tumour infiltration: No,L428 cells; 80 mg/kg,100.0%
same,Liver: Tumour infiltration: Overall,L428 cells; 80 mg/kg,0.0%
same,Liver: Tumour infiltration: Severe,L428 cells; 80 mg/kg,0.0%
same,Spleen: Tumour infiltration: Marked,L428 cells; 80 mg/kg,0.0%
same,Spleen: Tumour infiltration: Mild,L428 cells; 80 mg/kg,0.0%
same,Spleen: Tumour infiltration: Minimal,L428 cells; 80 mg/kg,0.0%
same,Spleen: Tumour infiltration: Moderate,L428 cells; 80 mg/kg,0.0%
same,Spleen: Tumour infiltration: No,L428 cells; 80 mg/kg,33.3%
same,Spleen: Tumour infiltration: Overall,L428 cells; 80 mg/kg,0.0%
same,Spleen: Tumour infiltration: Severe,L428 cells; 80 mg/kg,0.0%
same,Tumour presence: Overall,L428 cells; 80 mg/kg,66.7%
same,Bone Marrow: Tumour infiltration: Marked,L428 cells; 1 * 60 mg/kg,0.0%
same,Bone Marrow: Tumour infiltration: Mild,L428 cells; 1 * 60 mg/kg,0.0%
same,Bone Marrow: Tumour infiltration: Minimal,L428 cells; 1 * 60 mg/kg,25.0%
same,Bone Marrow: Tumour infiltration: Moderate,L428 cells; 1 * 60 mg/kg,0.0%
same,Bone Marrow: Tumour infiltration: No,L428 cells; 1 * 60 mg/kg,0.0%
same,Bone Marrow: Tumour infiltration: Overall,L428 cells; 1 * 60 mg/kg,25.0%
same,Bone Marrow: Tumour infiltration: Severe,L428 cells; 1 * 60 mg/kg,0.0%
same,Injection site: Tumour infiltration: Marked,L428 cells; 1 * 60 mg/kg,75.0%
same,Injection site: Tumour infiltration: Mild,L428 cells; 1 * 60 mg/kg,0.0%
same,Injection site: Tumour infiltration: Minimal,L428 cells; 1 * 60 mg/kg,0.0%
same,Injection site: Tumour infiltration: Moderate,L428 cells; 1 * 60 mg/kg,25.0%
same,Injection site: Tumour infiltration: No,L428 cells; 1 * 60 mg/kg,0.0%
same,Injection site: Tumour infiltration: Overall,L428 cells; 1 * 60 mg/kg,100.0%
same,Injection site: Tumour infiltration: Severe,L428 cells; 1 * 60 mg/kg,0.0%
same,Liver: Tumour infiltration: Marked,L428 cells; 1 * 60 mg/kg,0.0%
same,Liver: Tumour infiltration: Mild,L428 cells; 1 * 60 mg/kg,0.0%
same,Liver: Tumour infiltration: Minimal,L428 cells; 1 * 60 mg/kg,50.0%
same,Liver: Tumour infiltration: Moderate,L428 cells; 1 * 60 mg/kg,25.0%
same,Liver: Tumour infiltration: No,L428 cells; 1 * 60 mg/kg,25.0%
same,Liver: Tumour infiltration: Overall,L428 cells; 1 * 60 mg/kg,75.0%
same,Liver: Tumour infiltration: Severe,L428 cells; 1 * 60 mg/kg,0.0%
same,Spleen: Tumour infiltration: Marked,L428 cells; 1 * 60 mg/kg,0.0%
same,Spleen: Tumour infiltration: Mild,L428 cells; 1 * 60 mg/kg,0.0%
same,Spleen: Tumour infiltration: Minimal,L428 cells; 1 * 60 mg/kg,0.0%
same,Spleen: Tumour infiltration: Moderate,L428 cells; 1 * 60 mg/kg,0.0%
same,Spleen: Tumour infiltration: No,L428 cells; 1 * 60 mg/kg,25.0%
same,Spleen: Tumour infiltration: Overall,L428 cells; 1 * 60 mg/kg,0.0%
same,Spleen: Tumour infiltration: Severe,L428 cells; 1 * 60 mg/kg,0.0%
same,Tumour presence: Overall,L428 cells; 1 * 60 mg/kg,100.0%
same,Bone marrow,"L428 cells; 1 * 60 mg/kg, individual mice","1 (“1”=minimal, <1% staining)"
same,"Spleen, red pulp activation, diffuse","L428 cells; 1 * 60 mg/kg, individual mice",0
same,"Eye and/or periocular mucosa, periocular tumour cell infiltration, focal/multifocal/diffuse","L428 cells; 1 * 80 mg/kg, individual mice","2 (“2”=mild, 1% staining)"
same,"Liver, Tumour cell infiltration","L428 cells; 1 * 80 mg/kg, individual mice",0
same,"Spleen, red pulp activation, diffuse","L428 cells; 1 * 80 mg/kg, individual mice",0
same,Bone Marrow: Tumour infiltration: Marked,L428 cells; 2 * 60 mg/kg,0.0%
same,Bone Marrow: Tumour infiltration: Mild,L428 cells; 2 * 60 mg/kg,0.0%
same,Bone Marrow: Tumour infiltration: Minimal,L428 cells; 2 * 60 mg/kg,55.6%
same,Bone Marrow: Tumour infiltration: Moderate,L428 cells; 2 * 60 mg/kg,0.0%
same,Bone Marrow: Tumour infiltration: No,L428 cells; 2 * 60 mg/kg,22.2%
same,Bone Marrow: Tumour infiltration: Overall,L428 cells; 2 * 60 mg/kg,55.6%
same,Bone Marrow: Tumour infiltration: Severe,L428 cells; 2 * 60 mg/kg,0.0%
same,Injection site: Tumour infiltration: Marked,L428 cells; 2 * 60 mg/kg,0.0%
same,Injection site: Tumour infiltration: Mild,L428 cells; 2 * 60 mg/kg,11.1%
same,Injection site: Tumour infiltration: Minimal,L428 cells; 2 * 60 mg/kg,0.0%
same,Injection site: Tumour infiltration: Moderate,L428 cells; 2 * 60 mg/kg,0.0%
same,Injection site: Tumour infiltration: No,L428 cells; 2 * 60 mg/kg,0.0%
same,Injection site: Tumour infiltration: Overall,L428 cells; 2 * 60 mg/kg,11.1%
same,Injection site: Tumour infiltration: Severe,L428 cells; 2 * 60 mg/kg,0.0%
same,Liver: Tumour infiltration: Marked,L428 cells; 2 * 60 mg/kg,0.0%
same,Liver: Tumour infiltration: Mild,L428 cells; 2 * 60 mg/kg,11.1%
same,Liver: Tumour infiltration: Minimal,L428 cells; 2 * 60 mg/kg,44.4%
same,Liver: Tumour infiltration: Moderate,L428 cells; 2 * 60 mg/kg,0.0%
same,Liver: Tumour infiltration: No,L428 cells; 2 * 60 mg/kg,44.4%
same,Liver: Tumour infiltration: Overall,L428 cells; 2 * 60 mg/kg,55.6%
same,Liver: Tumour infiltration: Severe,L428 cells; 2 * 60 mg/kg,0.0%
same,Spleen: Tumour infiltration: Marked,L428 cells; 2 * 60 mg/kg,0.0%
same,Spleen: Tumour infiltration: Mild,L428 cells; 2 * 60 mg/kg,0.0%
same,Spleen: Tumour infiltration: Minimal,L428 cells; 2 * 60 mg/kg,44.4%
same,Spleen: Tumour infiltration: Moderate,L428 cells; 2 * 60 mg/kg,0.0%
same,Spleen: Tumour infiltration: No,L428 cells; 2 * 60 mg/kg,11.1%
same,Spleen: Tumour infiltration: Overall,L428 cells; 2 * 60 mg/kg,44.4%
same,Spleen: Tumour infiltration: Severe,L428 cells; 2 * 60 mg/kg,0.0%
same,Tumour presence: Overall,L428 cells; 2 * 60 mg/kg,66.7%
same,"Eye and/or periocular mucosa, periocular tumour cell infiltration, focal/multifocal/diffuse","L428 cells; 2 * 60 mg/kg, individual mice","2 (“2”=mild, 1% staining)"
same,"tumour cells in organs (liver, spleen, bone marrow)",L428 cells; single dose of 80 mg/kg,No tumour cells were observed in any organs
